# Measured values published in paper PMC12903969, “Discovery of a Novel and Potent Kir4.1 Inhibitor as a Safe and Rapid‐Onset Antidepressant Agent in Mice” (Advanced Science, 2025).
# “And” between values parts separate entries of the source, which are not always exact repeats. Equal entries are not always repeated.
# What was measured:
# [1] = test system: Kir4.1 cKO astrocytes; assay: Patch clamp of Kir4.1 cKO primary astrocytes; type: cell-based, mouse; settings: tamoxifen-treated Kir4.1 cKO astrocytes, 3 µM
# Protocol: Astrocytes were isolated and cultured as previously described.^[ [16] ^] Briefly, the cortices from P1‐P4 mouse pups were dissected and incubated for 25 min in Hank's Balanced Salt Solution (22.5 ml) with 2.5% trypsin (2.5 ml) at 37 °C. Cells were dissociated in cultured medium (DMEM/F12 supplemented with 10% fetal bovine serum and 1% penicillin and streptomycin) and filtered with a 70‐µm cell strainer. Cell suspensions were cultured in PDL‐pretreated 75‐cm^2 flasks for the initial seven days, with half of the medium replaced every 2 days. Subsequently, the cultures were shaken at 220 rpm for 6 h at 37 °C to remove microglia and oligodendrocytes from the astrocyte layers. […]
# Whole‐cell patch‐clamp recordings were obtained either in transiently transfected CHO‐K1 cells or in primary cultured astrocytes at room temperature using standard patch‐clamp techniques with an Axopatch‐700B amplifier (Axon Instruments). […] Macroscopic currents generated by expressed potassium channels were recorded under the voltage‐clamp conditions with an internal pipette solution composed of (in mM): 140 KCl, 5 NaCl, 1 CaCl2, 1 MgCl2, 10 HEPES, and 10 EGTA, pH 7.2 adjusted with KOH. […] Astrocytic resting membrane potentials were recorded under current‐clamp conditions (I = 0 pA) using standard internal and external solutions, determined immediately after achieving whole‐cell mode.
# [2] = test system: OBX C57BL/6J mice; assay: Olfactory bulbectomy (OBX) model, open field test; type: in vivo; settings: 30 mg kg−1, within 1 h
# Text: Male C57BL/6J mice (8–12 weeks old) were anesthetized by intraperitoneal injection of tiletamine‐zolazepam‐xylazine. Following confirmation of anesthesia, a midline scalp incision was made to expose the skull, and the bregma was identified as the anatomical reference point. Using a stereotaxic frame (Stoelting), bilateral olfactory bulbs (4 mm anterior to the bregma) were aspirated through a 1‐mm burr hole drilled with a dental drill. Hemostatic sponges were applied to the burr holes, and the incision was closed with 5‐0 silk sutures. The sham‐operated controls underwent identical procedures without bulb aspiration. Prophylactic antibiotic therapy (25% ampicillin, […], i.p.) was administered daily for three consecutive days post‐surgery. The animals were monitored during a 14‐day recovery period prior to behavioral assessments. After euthanasia, successful bulbectomy was verified by gross anatomical inspection, and habenular tissues were dissected on ice for subsequent molecular analyses.
# This test was used to assess anxiety‐related behaviors in the mice. C57BL/6J mice were individually habituated to a 40 × 40 × 40 cm^3 open field arena under dim light for […]. Locomotor activity during the final 5 min was digitally recorded (30 fps) and analyzed using Tracking Master (Future Life Science (Shanghai) Co., Ltd., Shanghai, China). […]
# [3] = test system: C57BL/6J mice; assay: Open field test (OFT) after chronic administration; type: in vivo; settings: chronic 10 mg kg−1 per day
# Protocol: This test was used to assess anxiety‐related behaviors in the mice. C57BL/6J mice were individually habituated to a 40 × 40 × 40 cm^3 open field arena under dim light for […]. Locomotor activity during the final 5 min was digitally recorded (30 fps) and analyzed using Tracking Master (Future Life Science (Shanghai) Co., Ltd., Shanghai, China). The primary endpoints included the total ambulatory distance (cm) and center‐zone exploration frequency (20 × 20 cm^2 central area).
# [4] = test system: mice; assay: Rotarod test (RT); type: in vivo; settings: chronic 10 mg kg−1 per day
# Protocol: The rotarod test was designed to evaluate the coordination and motor performance of rodents. The speed and time were set for the rod rotators. All experimental mice were allowed to adapt to a lower speed (5 rpm). For the formal test, the mice were placed on a rod spinning at 20 rpm, and the duration that the mice were able to hold on the rod at this speed was recorded. The maximum test duration was 20 min.
# [5] = test system: C57BL/6J mice after CSDS; assay: CSDS model, social interaction test; type: in vivo
# Protocol: The 10‐day CSDS paradigm was conducted as previously described.^[ [24] ^] CD‐1 aggressive mice were singly housed in defeat cages on one side of a perforated plexiglass partition 24 h before the defeat session. Experimental C57BL/6J mice were placed daily on the resident cage side of a novel CD‐1 aggressor that rapidly initiated a physical attack on the intruder. After 10‐min of social defeat, the intruder mice were housed on the opposite side of the partition within a shared home cage, experiencing further sensory contact for the subsequent 24 h. In contrast, control mice were maintained in their home cages and allowed to explore the empty defeat cages for 10 min each day.
# C57BL/6J mice, comprising both control and experimental groups, were placed individually into the social open field with a plexiglass enclosure positioned along the side wall. Movement parameters, including the time spent in the interaction zone, corner zones, and locomotion, were monitored and analyzed over the two test sessions using the AnyMaze Tracking System. In the first session, the mice freely explored the arena for 2.5 min. Then, a new aggressive CD‐1 mouse was introduced into the plexiglass enclosure, and the experimental mice returned to the arena for the second 2.5‐min session. The social interaction ratio was determined as the ratio between the time the experimental mice spent in the interaction zone when the target CD‐1 was present and the time spent in the zone when it was absent.
compound,measurement,setting,value
"c1ccc2c(c1)oc1ccc(Nc3ccnc(NCCCN4CCOCC4)n3)cc12 [JX3212, N^4-(dibenzo[b,d]furan-2-yl)-N^2-(3-morpholinopropyl)pyrimidine-2,4-diamine]",JX3212-induced effects in Kir4.1 cKO astrocytes (in words),[1],abolished
same,OBX: percentage of distance traveled in the center (in words),[2],increased percentage of distance traveled in the center
same,OBX: total distance traveled (in words),[2],did not affect the distance traveled
same,OFT total and central distance traveled (in words),[3],no pronounced differences
same,rotarod falling latency vs vehicle (in words),[4],showed no significant effects
same,"SIT--Time in interaction zone (s), single mice","[5]; 10 mg/kg, session not given",83.5 s and 59.3 s and 49.8 s and 72.2 s and 60.4 s and 74.9 s and 82.2 s and 43.8 s
same,CSDS: time spent in corners in SIT (in words),[5]; single i.p. injection 10 mg kg−1,significant decrease in the time spent in corners
